Results on one compound are retold here after patent US20080213385A1, “Formulations for 7- (T-Butoxy) Iminomethyl Camptothecin” (priority 2005, published 2008).

The nature of data set [1]: Particle size distribution by laser light scattering. Type of data set: physicochemical. The following applies: after milling (unmilled for unmilled drug). On the procedure: The aqueous nano-milling was performed in a ball mill using yittrium […] zirconia beads (0.5-0.6 mm in 0). For all trials the batch size was approximately 70 g. Prior to milling the beads were conditioned with 1% stabilizer solution for 24 hours at 1,200 rpm (minimal speed, 80 mL solution for 160 mL beads), rinsed with demineralized water until conductivity reading was the same as that of the water, placed in a 150-200° C. oven until dry and cooled to room temperature before use. Milling was performed at 3,200 rpm and milling times as outlined in Table 1 were used. Before and after milling the aqueous suspensions were characterized with respect to particle size distribution, appearance (microscopic pictures and laser light scattering), and dissolution rate and assay/degradation.

Data set [2] is described as follows: In vitro dissolution rate testing (USP2 apparatus, paddle). Type of data set: physicochemical. The following applies: 50 rpm, 37° C., 0.3% SDS in 1,000 mL water. Here is the method:
The dissolution rate testing was done using an USP2 apparatus, paddle, 50 rpm, 37° C., 0.3% SDS in 1,000 mL water, n=3. For dissolution rate testing, the aqueous suspensions were diluted 1:5 with water and filled into vials (0.5 mg drug substance/vial).

For `CC[C@@]1(O)C(=O)OCc2c1cc1n(c2=O)Cc2c-1nc1ccccc1c2/C=N/OC(C)(C)C` [Unmilled drug, 7-t-butoxyiminomethylcamptothecin], in data set [1], the “PSD (light scattering, after milling) x10” value is “x10 = 2 μm”; the “PSD (light scattering, after milling) x50” value was “x50 = 9 μm”; the “PSD (light scattering, after milling) x90” value is recorded as “x90 = 35 μm”. Further, in data set [2] (0.5 mg drug substance/vial, 15 min), the “Dissolution rate: % released, mean (n = 3), after 15 min” value is on record as 3%. Also, the “Dissolution rate: % released, mean (n = 3), after 30 min” value in data set [2] (30 min) was 5%. Moreover, the “Dissolution rate: % released, mean (n = 3), after 60 min” value in data set [2] (60 min) came out at 15%. Moreover, in data set [2] (120 min), the “Dissolution rate: % released, mean (n = 3), after 120 min” value is given as 31%.
